Measurements from patent US9040248B2, “Kits for detecting and monitoring endocrine disrupting chemicals (EDCs)” (The United States of America, as represented by the …, priority 2012, dated 2015).
Entries after “also recorded” stand apart in the source; their conditions may differ.

Key:
[1] = molecular target: T1, GFP-AR (GFP-tagged androgen receptor, eGFP-hAR) (Homo sapiens, UniProt P10275); assay: GFP-AR cytoplasm-to-nucleus translocation assay in 3108 cells; format: cell-based; conditions: 30 min treatment, hormones 100 nM or known concentrations, water samples 100×
T1 construct: expressed in transfected cells; host or cells: 3108 cells (derivative of the 3134 mouse mammary adenocarcinoma line), tetracycline-repressible promoter
Procedure: (§1) For biological testing, samples prepared as above were reconstituted in DMSO and diluted in growth media to a final 1,000× concentration from the original water volume while maintaining DMSO at <0.2%. Samples were added to cells for 30 minutes at 100× concentration or as indicated in the text.
Prior to imaging, cells were grown overnight on 22-mm^2 coverslips in DMEM medium containing 10% charcoal stripped serum (Hyclone, Logan, Utah) without tetracycline (to allow the expression of the GFP-GR or GFP-AR, respectively) at a density of 2×10^5 per 6-well plate. For the automated experiments conducted in 96 or 384 well plates, cell density was 10,000 or 2,500 cells per well, respectively. Cells were treated with vehicle control, hormones (100 nM) or water samples for 30 min at 37° C. at a final concentration of 100× for water samples (unless otherwise specified). […]
(§2) A Perkin Elmer Opera Image Screening System was used for fully automated collection of fluorescence images of cells. This system employed a 40× water immersion objective lens, laser illuminated Nipkow disk, and cooled CCD cameras to digitally capture high resolution confocal fluorescence micrographs (300 nm pixel size with 2×2 camera pixel binning). […] The algorithm also measured the mean GFP-GR or GFP-AR intensity in both compartments, and translocation was calculated as a ratio of these intensities. […]

[2] = molecular target: T2, GFP-GR (GFP-tagged glucocorticoid receptor) (Rattus norvegicus, UniProt P06536, C656G/D98G); assay: GFP-GR cytoplasm-to-nucleus translocation assay in 3617 cells; format: cell-based; conditions: 30 min treatment; water samples 100×
T2 construct: expressed in transfected cells; host or cells: 3617 cells (derivative of the 3134 mouse mammary adenocarcinoma line), tetracycline-repressible promoter
Procedure: as §1
Prior to imaging, cells were grown overnight on 22-mm^2 coverslips in DMEM medium containing 10% charcoal stripped serum (Hyclone, Logan, Utah) without tetracycline (to allow the expression of the GFP-GR or GFP-AR, respectively) at a density of 2×10^5 per 6-well plate. For the automated experiments conducted in 96 or 384 well plates, cell density was 10,000 or 2,500 cells per well, respectively. Cells were treated with vehicle control, hormones (100 nM) or water samples for 30 min at 37° C. at a final concentration of 100× for water samples (unless otherwise specified). Additional negative controls contained samples that tested the activity of the POCIS membranes themselves.
Upon treatment, cells were fixed with 4% paraformaldehyde in PBS for 15 minutes and washed three times with PBS. Cells on the 22-mm^2 coverslips were mounted in […]® mounting media with DAPI (Vector Laboratories, Inc.) and examined on a Leica DMRA microscope with Leica 100×1.3-N.A. oil immersion objective. Images were acquired in green (GFP-GR and GFP-AR) and UV (DAPI) channel with SenSys (Photometrics) camera with KAF1400 chip configured to collect 0.067-μm-diameter pixels. […]
as §2

Row | SMILES | GFP-AR nuclear translocation (in words) [1] | GFP-AR nuclear translocation (in words) ([1]; listed as androst-4-en-3,6-dione) | GFP-GR nuclear translocation (in words) [2]
1 | C[C@@]12CCC[C@H]1[C@@H]1CC(=O)C3=CC(=O)CC[C@]3(C)[C@H]1CC2 (single isomer, unassigned) [Androst-4-en-3,6-dione] | induced GFP-tagged androgen receptor (GFP-AR) translocation | translocated to the nucleus in concentration-dependent manner; also recorded: induces concentration-dependent translocation | did not induce GFP-GR translocation
2 | CCNc1nc(Cl)nc(NC(C)C)n1 [atrazine] | – | – | did not induce GFP-GR translocation
3 | C[C@]12C[C@H](O)[C@H]3[C@@H](CCC4=CC(=O)CC[C@@]43C)[C@@H]1CC[C@@H]2C(=O)CO [corticosterone] | – | – | translocates to the nucleus in a concentration-dependent manner
